Assay results taken from patent publication US7709643B2, “Synthesis of sodium narcistatin and related compounds” (Arizona Board of Regents, a body corporate of the State of …, priority 2005, dated 2010).
Converted amounts (≈) assume the structure as drawn.

Legend:
[1] = tested on: BXPC-3; test: Human cancer cell line minipanel, Pancreas-a BXPC-3; type: cell-based
Experimental: (§1) The cyclic phosphate prodrugs, along with the parent compounds were evaluated against a minipanel of human cancer cell lines and murine P388 lymphocytic leukemia.

[2] = tested on: MCF-7; test: Human cancer cell line minipanel, Breast MCF-7; type: cell-based
Experimental: as §1

[3] = tested on: SF268; test: Human cancer cell line minipanel, CNS SF268; type: cell-based
Experimental: as §1

[4] = tested on: NCI-H460; test: Human cancer cell line minipanel, Lung-NSC NCI-H460; type: cell-based
Experimental: as §1

[5] = tested on: KM20L2; test: Human cancer cell line minipanel, Colon KM20L2; type: cell-based
Experimental: as §1

[6] = tested on: DU-145; test: Human cancer cell line minipanel, Prostate DU-145; type: cell-based
Experimental: as §1

[7] = Aqueous solubility at 25° C.; type: physicochemical
[8] = tested on: minipanel of human cancer cell lines and murine P388 lymphocytic leukemia; test: Minipanel of human cancer cell lines and murine P388 lymphocytic leukemia (summary in words); type: cell-based; details: summary of the cancer cell line evaluations of Table 2
Experimental: as §1
The corresponding 3,5-cyclic phosphates were less inhibitory under the experimental conditions employed. However, cleavage of the phosphate groups is expected to be very effective in vivo and such anticancer evaluations are now underway as part of the further preclinical development of these new anticancer drug candidates. (Pettit, G. R., et al., J. Nat. Prod. 2003, 66, 92-96.), (Dowlati, A., et al., Cancer Research 2002, 62, 3408-3416.), (Dziba, J. M., et al., Thyroid 2002, 12, 1063-1070.), (Eikesdal, H. P., et al., Cancer Lett. 2002, 178, 209-217.), (Prise, V., et al., Int. J. Oncology 2002, 21, 717-726.), (Hill, S. A., et al., Int. J. Cancer 2002, 102, 70-74.)

[9] = tested on: NCI panel of cancer cell lines; details: J. Nat. Prod. 56:1682-1687, 1993; cited from earlier work
[10] = tested on: RNA viruses; details: J. Nat. Prod. 55:1569-1581; 1992; cited from earlier work

Row | Compound | GI50 Pancreas-a BXPC-3 [1] [µg/mL] | GI50 Breast MCF-7 [2] [µg/mL] | GI50 CNS SF268 [3] [µg/mL] | GI50 Lung-NSC NCI-H460 [4] [µg/mL] | GI50 Colon KM20L2 [5] [µg/mL] | GI50 Prostate DU-145 [6] [µg/mL] | Aqueous Solubility 25° C. [7] [µg/mL] | cancer cell growth inhibitory activity (in words) [8] | GI50 [9] [nM] | activity against a range of RNA viruses [10]
1 | O=C1N[C@@H]2C(=C[C@H](O)[C@H]3OP(=O)([O-])O[C@H]32)c2cc3c(cc21)OCO3.[K+] [10b, Potassium 7-Deoxy-narcistatin] | >1 | >1 | >1 | >1 | >1 | >1 | – | – | – | –
2 | O=C1N[C@H]2[C@@H]3OP(=O)([O-])O[C@@H]3[C@@H](O)C[C@@H]2c2cc3c(c(O)c21)OCO3.[K+] (relative stereo) [12b, Potassium trans-dihydro-narcistatin] | >1 | 0.64 | >1 | >1 | >1 | 0.54 | – | – | – | –
3 | O=C1N[C@H]2[C@@H]3OP(=O)([O-])O[C@@H]3[C@@H](O)C[C@@H]2c2cc3c(cc21)OCO3.[Li+] (relative stereo) [11a, Lithium 7-deoxy-trans-dihydro-narcistatin] | >1 | >1 | >1 | >1 | >1 | >1 | – | – | – | –
4 | O=C1N[C@H]2[C@@H]3OP(=O)([O-])O[C@@H]3[C@@H](O)C[C@@H]2c2cc3c(c(O)c21)OCO3.[Li+] (relative stereo) [12a, Lithium trans-dihydro-narcistatin] | >1 | >1 | >1 | >1 | >1 | >1 | – | – | – | –
5 | O=C1N[C@@H]2C(=C[C@H](O)[C@H]3OP(=O)([O-])O[C@H]32)c2cc3c(cc21)OCO3.[Li+] [10a, Lithium 7-Deoxy-narcistatin] | >1 | >1 | >1 | >1 | >1 | >1 | – | – | – | –
6 | O=C1N[C@H]2[C@@H]3OP(=O)([O-])O[C@@H]3[C@@H](O)C[C@@H]2c2cc3c(cc21)OCO3.[K+] (relative stereo) [11b, Potassium 7-deoxy-trans-dihydro-narcistatin] | >1 | >1 | >1 | >1 | >1 | >1 | – | – | – | –
7 | O=C1N[C@@H]2C(=C[C@H](O)[C@@H](O)[C@H]2O)c2cc3c(cc21)OCO3 [2c, 7-deoxynarciclasine, reference compound] | 0.070 (≈ 0.24 µM) | 0.046 (≈ 0.158 µM) | 0.120 (≈ 0.412 µM) | 0.053 (≈ 0.182 µM) | 0.084 (≈ 0.288 µM) | 0.051 (≈ 0.175 µM) | <1000 | – | – | –
8 | O=C1N[C@H]2[C@H](O)[C@H](O)[C@@H](O)C[C@@H]2c2cc3c(c(O)c21)OCO3 (relative stereo) [1a, trans-dihydronarciclasine] | 0.012 (≈ 0.0388 µM) | 0.0053 (≈ 0.0171 µM) | 0.020 (≈ 0.0647 µM) | 0.0092 (≈ 0.0297 µM) | 0.015 (≈ 0.0485 µM) | 0.0066 (≈ 0.0213 µM) | <1000 | strong cancer cell growth inhibitory activity | 12.6 | strong activity
9 | O=C1N[C@H]2[C@H](O)[C@H](O)[C@@H](O)C[C@@H]2c2cc3c(cc21)OCO3 (relative stereo) [1c, 7-deoxy-trans-dihydronarciclasine] | 0.046 (≈ 0.157 µM) | 0.034 (≈ 0.116 µM) | 0.059 (≈ 0.201 µM) | 0.043 (≈ 0.147 µM) | 0.051 (≈ 0.174 µM) | 0.040 (≈ 0.136 µM) | <1000 | strong cancer cell growth inhibitory activity | – | –
10 | O=C1N[C@@H]2C(=C[C@H](O)[C@H]3OP(=O)([O-])O[C@H]32)c2cc3c(cc21)OCO3.[Na+] [compound 10, Sodium 7-Deoxy-narcistatin] | 5.3 | 4.0 | 6.3 | 4.7 | 5.6 | 3.9 | – | – | – | –
11 | O=C1NC2C(CC(O)C(O)C2O)c2cc3c(c(O)c21)OCO3 (stereo not drawn) [3a, cis-dihydronarciclasine, reference compound] | – | – | – | – | – | – | – | – | 3800 | completely inactive
12 | O=C1N[C@H]2[C@@H]3OP(=O)([O-])O[C@@H]3[C@@H](O)C[C@@H]2c2cc3c(cc21)OCO3.[Na+] (relative stereo) [compound 11, Sodium 7-Deoxy-trans-dihydro-narcistatin] | >10 | 7.2 | >10 | >10 | >10 | >10 | – | – | – | –
13 | O=C1N[C@H]2[C@@H]3OP(=O)([O-])O[C@@H]3[C@@H](O)C[C@@H]2c2cc3c(c(O)c21)OCO3.[Na+] (relative stereo) [compound 12, Sodium trans-dihydro-narcistatin] | 5.6 | 4.6 | 8.8 | 7.8 | 9.6 | 5.2 | – | – | – | –
